Test results from ChEMBL document CHEMBL6087462, “Cuminaldehyde Potentiates Antiproteolytic Peptide Efficacy via Parallel Pathways of Enhanced Inner Membrane-Damaging Activity and Inhibition of Bacterial Energy Metabolism” (J Med Chem, 2025).

Assays:
[1] = Antimicrobial activity against Salmonella enterica subsp. enterica serovar Pullorum ATCC 7913 assessed as reduction in microbial growth by CLSI based broth microdilution method; format: functional
Pseudomonas aeruginosa = experiment: Antimicrobial activity against Pseudomonas aeruginosa ATCC 27853 assessed as reduction in microbial growth by CLSI based broth microdilution method; format: functional
Staphylococcus aureus [2] = experiment: Antimicrobial activity against Staphylococcus aureus ATCC 25923 assessed as reduction in microbial growth by CLSI based broth microdilution method; format: functional
Escherichia coli [3] = experiment: Antimicrobial activity against Escherichia coli 078 assessed as reduction in microbial growth by CLSI based broth microdilution method; format: functional
Escherichia coli [4] = experiment: Antimicrobial activity against Escherichia coli ATCC 25922 assessed as reduction in microbial growth by CLSI based broth microdilution method; format: functional
Salmonella typhimurium [5] = experiment: Antimicrobial activity against Salmonella typhimurium ATCC 7731 assessed as reduction in microbial growth by CLSI based broth microdilution method; format: functional, Salmonella enterica subsp. enterica serovar Typhimurium; conditions: Salmonella enterica
Escherichia coli [6] = experiment: Antimicrobial activity against Escherichia coli K88 assessed as reduction in microbial growth by CLSI based broth microdilution method; format: functional
Salmonella typhimurium [7] = experiment: Antimicrobial activity against Salmonella typhimurium ATCC 14028 assessed as reduction in microbial growth by CLSI based broth microdilution method; format: functional, Salmonella enterica subsp. enterica serovar Typhimurium; conditions: Salmonella enterica
Escherichia coli [8] = experiment: Antimicrobial activity against Escherichia coli UB 1005 assessed as reduction in microbial growth by CLSI based broth microdilution method; format: functional
Staphylococcus aureus [9] = experiment: Antimicrobial activity against Staphylococcus aureus ATCC 29213 assessed as reduction in microbial growth by CLSI based broth microdilution method; format: functional
Enterococcus faecalis = experiment: Antimicrobial activity against Enterococcus faecalis ATCC 29212 assessed as reduction in microbial growth by CLSI based broth microdilution method; format: functional
[10] = test system: Staphylococcus epidermidis; experiment: Antimicrobial activity against Staphylococcus epidermidis ATCC 12228 assessed as reduction in microbial growth by CLSI based broth microdilution method; format: functional
Staphylococcus aureus [11] = experiment: Antimicrobial activity against Staphylococcus aureus 43300 assessed as reduction in microbial growth by CLSI based broth microdilution method; format: functional
Escherichia coli [12] = experiment: Antimicrobial activity against Escherichia coli K99 assessed as reduction in microbial growth by CLSI based broth microdilution method; format: functional

SMILES	MIC [1] [µg/mL]	MIC (Pseudomonas aeruginosa) [µg/mL]	MIC (Staphylococcus aureus [2]) [µg/mL]	MIC (Escherichia coli [3]) [µg/mL]	MIC (Escherichia coli [4]) [µg/mL]	MIC (Salmonella typhimurium [5]) [µg/mL]	MIC (Escherichia coli [6]) [µg/mL]	MIC (Salmonella typhimurium [7]) [µg/mL]	MIC (Escherichia coli [8]) [µg/mL]	MIC (Staphylococcus aureus [9]) [µg/mL]	MIC (Enterococcus faecalis) [µg/mL]	MIC [10] [µg/mL]	MIC (Staphylococcus aureus [11]) [µg/mL]	MIC (Escherichia coli [12]) [µg/mL]
CC(C)=CCC/C(C)=C/C=O [CITRAL]	8190	4100	1020	8190	8190	8190	16400	8190	16400	1020	4100	4100	1020	8190
C=C(C)C1CC=C(C=O)CC1 (stereo unspecified) [PERILLALDEHYDE]	16400	1230	1230	16400	16400	16400	8190	16400	16400	2050	512	256	512	16400
Cc1ccc(C(C)C)c(O)c1 [THYMOL]	256	256	256	64	256	128	128	256	256	256	256	128	256	256
CC(C)c1ccc(C=O)cc1 [CUMINALDEHYDE]	8190	8190	8190	16400	8190	8190	16400	8190	16400	4100	2050	8190	2050	8190
